The results in this text go back to the supplement of paper PMC10627819.

Assay in all cases: Bliss interaction score (quartile over a dose matrix) (fitness difference); higher = more antagonism (negative = synergy)
The subject of test [1] is B. subtilis 168. In outline: (§1)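 The Bliss score takes observed fitness and subtracts the expected fitness, calculated as a product of single-drug fitness values. Those single-drug values were inferred from the combination data. Fitness is OD595 at entry into stationary phase divided by the plate's robust no-drug mean, capped at 1, and the score is summarised by quartiles across technical, biological and donor/recipient replicates.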

The subject of test [2] is S. aureus Newman. In outline: as §1
Test [3] has as its system S. pneumoniae D39V. The gist of the method: as §1
Test [4] relates to S. aureus DSM 20231. The gist of the method:
as §1
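Note: first quartile when negative (synergy) and third quartile when positive (antagonism).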

For the compound `CC(=O)O[C@H]1C[C@@]2(C)[C@@H](C[C@@H](O)[C@H]3[C@@]4(C)CC[C@@H](O)[C@@H](C)[C@@H]4CC[C@@]32C)/C1=C(\CCC=C(C)C)C(=O)O` [Fusidic acid] + CN(C)c1cc(NC(=O)CNC(C)(C)C)c(O)c2c1C[C@H]1C[C@H]3[C@H](N(C)C)C(O)=C(C(N)=O)C(=O)[C@@]3(O)C(O)=C1C2=O [Tigecycline], the Bliss interaction score in test [1] was 0.074; in test [2], 0.0375; in test [3] it was -0.0713; in test [4], -0.0504.
The matching figures for `CC(=O)O[C@H]1C[C@@]2(C)[C@@H](C[C@@H](O)[C@H]3[C@@]4(C)CC[C@@H](O)[C@@H](C)[C@@H]4CC[C@@]32C)/C1=C(\CCC=C(C)C)C(=O)O` [Fusidic acid] + CN(N=O)C(=O)N[C@@H](C=O)[C@@H](O)[C@H](O)[C@H](O)CO [Streptozotocin]: 0.0745, -0.0145, 0.0486 and -0.0166.
`CC(=O)O[C@H]1C[C@@]2(C)[C@@H](C[C@@H](O)[C@H]3[C@@]4(C)CC[C@@H](O)[C@@H](C)[C@@H]4CC[C@@]32C)/C1=C(\CCC=C(C)C)C(=O)O` [Fusidic acid] + CN[C@@H]1[C@H](O)[C@H](NC)[C@H]2O[C@@]3(O)C(=O)C[C@@H](C)O[C@H]3O[C@@H]2[C@H]1O [Spectinomycin]: the Bliss interaction score in test [1] is 0.0642; in test [2], -0.0448; in test [3], -0.0789; in test [4], 0.027.
Turning to `CC(=O)O[C@H]1C[C@@]2(C)[C@@H](C[C@@H](O)[C@H]3[C@@]4(C)CC[C@@H](O)[C@@H](C)[C@@H]4CC[C@@]32C)/C1=C(\CCC=C(C)C)C(=O)O` [Fusidic acid] + CN[C@@H]1[C@H](O[C@H]2[C@H](O[C@H]3[C@H](O)[C@@H](O)[C@H](N=C(N)N)[C@@H](O)[C@@H]3N=C(N)N)O[C@@H](C)[C@]2(O)C=O)O[C@@H](CO)[C@H](O)[C@H]1O [Streptomycin], the Bliss interaction score in test [1] was 0.0692; in test [2] it was -0.0834; in test [3] it was -0.0901; in test [4] it was 0.034.
On the same counts, the results for `CC(=O)O[C@H]1C[C@@]2(C)[C@@H](C[C@@H](O)[C@H]3[C@@]4(C)CC[C@@H](O)[C@@H](C)[C@@H]4CC[C@@]32C)/C1=C(\CCC=C(C)C)C(=O)O` [Fusidic acid] + CN[C@H](CC(C)C)C(=O)N[C@H]1C(=O)N[C@@H](CC(N)=O)C(=O)N[C@H]2C(=O)N[C@H]3C(=O)N[C@H](C(=O)N[C@H](C(=O)O)c4cc(O)cc(O)c4-c4cc3ccc4O)[C@H](O)c3ccc(c(Cl)c3)Oc3cc2cc(c3O[C@@H]2O[C@H](CO)[C@@H](O)[C@H](O)[C@H]2O[C@H]2C[C@](C)(N)[C@H](O)[C@H](C)O2)Oc2ccc(cc2Cl)[C@H]1O [Vancomycin] are -0.0397, -0.0305, 0.0729 and 0.0205.
The matching figures for `CC(=O)O[C@H]1C[C@@]2(C)[C@@H](C[C@@H](O)[C@H]3[C@@]4(C)CC[C@@H](O)[C@@H](C)[C@@H]4CC[C@@]32C)/C1=C(\CCC=C(C)C)C(=O)O` [Fusidic acid] + CN[C@H](CC(C)C)C(=O)N[C@H]1C(=O)N[C@@H](CC(N)=O)C(=O)N[C@H]2C(=O)N[C@H]3C(=O)N[C@H](C(=O)N[C@H](C(=O)O)c4cc(O)cc(O)c4-c4cc3ccc4O)[C@H](O[C@H]3C[C@](C)(N)[C@@H](O)[C@H](C)O3)c3ccc(c(Cl)c3)Oc3cc2cc(c3O[C@@H]2O[C@H](CO)[C@@H](O)[C@H](O)[C@H]2O[C@H]2C[C@](C)(NCc3ccc(-c4ccc(Cl)cc4)cc3)[C@@H](O)[C@H](C)O2)Oc2ccc(cc2Cl)[C@H]1O [Oritavancin]: 0.0477, 0.0249, 0.0765 and 0.0159.
For `CC(=O)O[C@H]1C[C@@]2(C)[C@@H](C[C@@H](O)[C@H]3[C@@]4(C)CC[C@@H](O)[C@@H](C)[C@@H]4CC[C@@]32C)/C1=C(\CCC=C(C)C)C(=O)O` [Fusidic acid] + CO[C@@H]1[C@@H](OC(N)=O)[C@@H](O)[C@H](Oc2ccc3c(O)c(NC(=O)c4ccc(O)c(CC=C(C)C)c4)c(=O)oc3c2C)OC1(C)C [Novobiocin], the Bliss interaction score in test [1] is 0.0723; in test [2], 0.0521; in test [3] it was -0.153; in test [4], 0.0249.
Regarding `CC(=O)O[C@H]1C[C@@]2(C)[C@@H](C[C@@H](O)[C@H]3[C@@]4(C)CC[C@@H](O)[C@@H](C)[C@@H]4CC[C@@]32C)/C1=C(\CCC=C(C)C)C(=O)O` [Fusidic acid] + CO[C@@]12[C@H](COC(N)=O)C3=C(C(=O)C(C)=C(N)C3=O)N1C[C@@H]1N[C@@H]12 [MitomycinC], the Bliss interaction score in test [1] was 0.0298; in test [2], 0.0159; in test [3] it was -0.149; in test [4] it was 0.0263.
As for `CC(=O)O[C@H]1C[C@@]2(C)[C@@H](C[C@@H](O)[C@H]3[C@@]4(C)CC[C@@H](O)[C@@H](C)[C@@H]4CC[C@@]32C)/C1=C(\CCC=C(C)C)C(=O)O` [Fusidic acid] + CO[C@H]1/C=C/O[C@@]2(C)Oc3c(C)c(O)c4c(O)c(c(/C=N/N5CCN(C)CC5)c(O)c4c3C2=O)NC(=O)/C(C)=C\C=C\[C@H](C)[C@H](O)[C@@H](C)[C@@H](O)[C@@H](C)[C@H](OC(C)=O)[C@@H]1C [Rifampicin], the Bliss interaction score came out at 0.0723 in test [1], 0.0314 in test [2], 0.0781 in test [3] and 0.0497 in test [4].
On the same counts, the results for `CC(=O)O[C@H]1C[C@@]2(C)[C@@H](C[C@@H](O)[C@H]3[C@@]4(C)CC[C@@H](O)[C@@H](C)[C@@H]4CC[C@@]32C)/C1=C(\CCC=C(C)C)C(=O)O` [Fusidic acid] + COc1c(N2C[C@@H]3CCCN[C@@H]3C2)c(F)cc2c(=O)c(C(=O)O)cn(C3CC3)c12 [Moxifloxacin] are 0.0398, 0.0453, 0.048 and 0.0361.
On the same counts, the results for `CC(=O)O[C@H]1C[C@@]2(C)[C@@H](C[C@@H](O)[C@H]3[C@@]4(C)CC[C@@H](O)[C@@H](C)[C@@H]4CC[C@@]32C)/C1=C(\CCC=C(C)C)C(=O)O` [Fusidic acid] + COc1cc(Cc2cnc(N)nc2N)cc(OC)c1OC [Trimethoprim] are 0.112, 0.0427, -0.0871 and 0.0265.
As for `CC(=O)O[C@H]1C[C@@]2(C)[C@@H](C[C@@H](O)[C@H]3[C@@]4(C)CC[C@@H](O)[C@@H](C)[C@@H]4CC[C@@]32C)/C1=C(\CCC=C(C)C)C(=O)O` [Fusidic acid] + COc1ccc(C[C@H](N)C(=O)N[C@H]2[C@@H](O)[C@H](n3cnc4c(N(C)C)ncnc43)O[C@@H]2CO)cc1 [Puromycin], the Bliss interaction score in test [1] is -0.045; in test [2], -0.0454; in test [3] it was -0.213; in test [4], 0.0336.
